pIC50: −log10 of the molar value.
These compounds were tested against T1, Diphosphomevalonate decarboxylase (Streptococcus pneumoniae serotype 2 (strain D39 / NCTC 7466), UniProt A0A0H2ZN59) (assay: diphosphomevalonate decarboxylase inhibition dose curves – biochemical, PK/LDH-coupled NADH fluorescence, hexokinase coupling counter-screen, dose response (AID 550)). Conditions: not given.
T1 sequence (A0A0H2ZN59 whole entry): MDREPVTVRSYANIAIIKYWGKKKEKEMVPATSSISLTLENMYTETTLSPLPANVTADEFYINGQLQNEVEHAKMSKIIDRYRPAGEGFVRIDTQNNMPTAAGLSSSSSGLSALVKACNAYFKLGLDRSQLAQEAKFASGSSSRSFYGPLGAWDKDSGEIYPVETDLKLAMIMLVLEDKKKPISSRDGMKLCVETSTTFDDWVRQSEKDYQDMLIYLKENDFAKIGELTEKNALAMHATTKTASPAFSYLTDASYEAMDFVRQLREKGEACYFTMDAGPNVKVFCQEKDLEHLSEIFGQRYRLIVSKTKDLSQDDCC

Structure (SMILES)	pIC50
Cc1c(NC(=O)CN2c3cccc4cccc(c34)S2(=O)=O)c(=O)n(-c2ccccc2)n1C [MLS000050268]	4.47
CC(NC(=O)c1cccc(N2CCCC2=O)c1)c1ccc2c(c1)OCCO2 (stereo not given) [MLS000046772]	< 2.00
CCN(CC)c1nc2ccccc2n2cnnc12	< 2.00
O=C(NCc1ccco1)c1ccccc1NS(=O)(=O)c1ccc2c(c1)OCCO2 [2-(2,3-dihydro-1,4-benzodioxin-6-ylsulfonylamino)-N-(2-furanylmethyl)benzamide]	4.37
O=c1c2cc(N3CCOCC3)ccc2[nH]c(=S)n1Cc1ccccn1 [MLS000095415]	4.44
CCOC(=O)CSc1cc(=O)n(C)c2cc(Cl)ccc12 [2-[(7-chloro-1-methyl-2-oxo-4-quinolinyl)thio]acetic acid ethyl ester]	< 2.00
Cc1ccc2oc(=O)c3cnn(CC(=O)NC4CCN(Cc5ccccc5)CC4)c3c2c1 [2-(8-methyl-4-oxidanylidene-chromeno[4,3-c]pyrazol-1-yl)-N-[1-(phenylmethyl)piperidin-4-yl]ethanamide]	< 2.00
CCOC(=O)c1cc2c(=O)n3ccccc3nc2n(C(C)C)/c1=N\C(=O)c1ccncc1 [2-isonicotinoylimino-1-isopropyl-5-keto-dipyrido[1,2-d:3',4'-f]pyrimidine-3-carboxylic acid ethyl ester]	4.82
Cc1cc(=O)[nH]c2ccccc12	< 2.00
Cc1ccc(C2C3=C(CC(C)(C)CC3=O)N(CCN3CCOCC3)C3=C2C(=O)CC(C)(C)C3)cc1	< 2.00
CCOC(=O)c1sc2nc(SCC(=O)NCc3ccco3)n(Cc3ccccc3)c(=O)c2c1C [2-[[2-(2-furanylmethylamino)-2-oxoethyl]thio]-5-methyl-4-oxo-3-(phenylmethyl)-6-thieno[2,3-d]pyrimidinecarboxylic acid ethyl ester]	4.07
Cc1cc(O)cc(C)n1 [2,6-dimethyl-1H-pyridin-4-one]	< 2.00
COCCNC(=O)C(C#N)c1nc2ccccc2nc1N1CCCCCC1 (stereo not given) [2-[3-(1-azepanyl)-2-quinoxalinyl]-2-cyano-N-(2-methoxyethyl)acetamide]	3.72
CC(C)(C)CC(=O)Nc1nnc(-c2cccs2)s1 [3,3-Dimethyl-N-(5-thiophen-2-yl-[1,3,4]thiadiazol-2-yl)-butyramide]	< 2.00

Same assay, conditions: inactive by the depositor's call

Structure (SMILES)	pIC50
Nc1cc(C(=O)O)ccc1Nc1ccccc1 [3-amino-4-anilino-benzoic acid]	3.92

Reference: BindingDB's records for doi:10.7270/Q2N014XN (Srmlsc, 2007)
